Measured values taken from ChEMBL document CHEMBL1201862, “PubChem BioAssay data set” (2004).
Calls of active or inactive are those of the source.

Columns and labels:
[1] = biological target: Cytochrome P450 2C19 (Homo sapiens, UniProt P33261); assay: Cytochrome panel assay with activity outcomes. Panel member name: p450-cyp2c19 Compounds with AC50 equal or less than 10 uM are considered active; type: functional; settings: read-out: AC50
[2] = biological target: Cytochrome P450 2D6 (Homo sapiens, UniProt P10635);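 further: CYP2D6 member of a cytochrome P450 panel assay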
Sequence of Cytochrome P450 2D6 (P10635 whole entry): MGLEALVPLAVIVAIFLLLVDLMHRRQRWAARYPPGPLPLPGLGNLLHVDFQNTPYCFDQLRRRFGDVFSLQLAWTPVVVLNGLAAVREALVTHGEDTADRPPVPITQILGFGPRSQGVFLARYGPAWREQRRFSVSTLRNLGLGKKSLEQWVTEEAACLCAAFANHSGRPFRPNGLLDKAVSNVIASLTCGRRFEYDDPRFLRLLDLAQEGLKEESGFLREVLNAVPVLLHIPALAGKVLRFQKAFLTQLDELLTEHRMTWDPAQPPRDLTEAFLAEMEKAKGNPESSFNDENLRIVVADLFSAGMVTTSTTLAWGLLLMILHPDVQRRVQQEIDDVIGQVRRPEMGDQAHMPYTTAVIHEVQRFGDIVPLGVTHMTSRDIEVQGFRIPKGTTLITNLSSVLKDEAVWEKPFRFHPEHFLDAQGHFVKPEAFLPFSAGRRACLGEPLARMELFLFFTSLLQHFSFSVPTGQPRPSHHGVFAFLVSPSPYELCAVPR

[3] = biological target: T1, Cytochrome P450 1A2 (Homo sapiens, UniProt P05177)
T1 sequence (P05177 whole entry): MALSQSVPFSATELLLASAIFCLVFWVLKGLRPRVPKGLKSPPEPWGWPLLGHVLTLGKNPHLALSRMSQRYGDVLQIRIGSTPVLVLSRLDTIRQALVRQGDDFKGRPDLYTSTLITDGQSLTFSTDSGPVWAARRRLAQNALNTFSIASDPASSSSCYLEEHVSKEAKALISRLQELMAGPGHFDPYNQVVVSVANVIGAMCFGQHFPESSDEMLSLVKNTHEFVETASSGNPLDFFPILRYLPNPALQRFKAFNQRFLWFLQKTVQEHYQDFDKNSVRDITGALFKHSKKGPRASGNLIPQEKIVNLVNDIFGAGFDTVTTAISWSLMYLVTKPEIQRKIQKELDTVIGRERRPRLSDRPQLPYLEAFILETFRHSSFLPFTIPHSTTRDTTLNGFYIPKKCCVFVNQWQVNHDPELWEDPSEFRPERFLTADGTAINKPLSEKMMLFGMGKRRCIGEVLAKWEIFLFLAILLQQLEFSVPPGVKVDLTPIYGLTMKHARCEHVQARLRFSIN

[4] = biological target: FAD-linked sulfhydryl oxidase ALR (Homo sapiens, UniProt P55789); assay: inhibitors of human ALR sulfhydryl oxidase, dose response, biochemical, H2O2 detection, luminescence, cherry-pick (AID 493248)
Sequence of FAD-linked sulfhydryl oxidase ALR (P55789 whole entry): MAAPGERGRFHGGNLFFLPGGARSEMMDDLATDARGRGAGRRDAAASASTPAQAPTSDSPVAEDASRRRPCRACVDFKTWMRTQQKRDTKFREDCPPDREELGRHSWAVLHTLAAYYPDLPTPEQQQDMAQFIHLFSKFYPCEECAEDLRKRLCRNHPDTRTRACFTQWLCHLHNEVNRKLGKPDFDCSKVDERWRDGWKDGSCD

[5] = HEp-2 cell cytotoxicity, dose response, cytotoxicity control for RSV inhibitor project, HTS (AID 2410); type: functional; settings: human respiratory syncytial virus
[6] = Luminescence Cell-Based Dose Retest to Confirm Inhibitors of Cancer Stem Cells. [Related pubchem assays (depositor defined):AID2717, AID2721]; type: functional; settings: Homo sapiens
[7] = biological target: Cytochrome P450 2C9 (Homo sapiens, UniProt P11712)
Sequence of Cytochrome P450 2C9 (P11712 whole entry): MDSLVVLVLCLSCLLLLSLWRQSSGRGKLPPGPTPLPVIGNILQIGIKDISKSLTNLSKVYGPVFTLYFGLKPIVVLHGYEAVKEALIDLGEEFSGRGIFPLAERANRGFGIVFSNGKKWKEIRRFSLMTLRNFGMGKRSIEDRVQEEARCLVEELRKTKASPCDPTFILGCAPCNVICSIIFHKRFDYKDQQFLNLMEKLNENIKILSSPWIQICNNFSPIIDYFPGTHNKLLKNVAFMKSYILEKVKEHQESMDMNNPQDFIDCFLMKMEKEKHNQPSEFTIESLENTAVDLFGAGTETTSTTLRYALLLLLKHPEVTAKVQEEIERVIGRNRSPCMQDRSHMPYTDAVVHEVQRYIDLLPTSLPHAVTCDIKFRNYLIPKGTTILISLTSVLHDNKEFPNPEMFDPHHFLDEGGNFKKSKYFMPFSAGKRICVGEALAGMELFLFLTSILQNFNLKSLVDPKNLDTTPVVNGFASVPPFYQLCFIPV

Sequence of Cytochrome P450 2C19 (P33261 whole entry): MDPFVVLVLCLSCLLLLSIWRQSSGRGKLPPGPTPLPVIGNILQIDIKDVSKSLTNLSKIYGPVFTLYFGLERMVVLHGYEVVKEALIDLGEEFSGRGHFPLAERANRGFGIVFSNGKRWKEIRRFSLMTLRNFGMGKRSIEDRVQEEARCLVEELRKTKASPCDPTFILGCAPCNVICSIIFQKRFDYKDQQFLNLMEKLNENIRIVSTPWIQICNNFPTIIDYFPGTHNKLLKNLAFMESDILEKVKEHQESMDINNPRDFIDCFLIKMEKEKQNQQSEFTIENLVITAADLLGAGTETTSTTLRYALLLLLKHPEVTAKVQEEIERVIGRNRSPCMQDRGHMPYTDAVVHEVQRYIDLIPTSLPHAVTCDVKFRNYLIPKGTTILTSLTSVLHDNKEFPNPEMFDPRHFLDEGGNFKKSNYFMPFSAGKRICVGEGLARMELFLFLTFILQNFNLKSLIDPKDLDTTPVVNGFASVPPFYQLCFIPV

For `COc1cccc(NC(=O)COC(=O)c2nc3nccc(C)n3n2)c1`, which AC50 [1] is on record?
The AC50 was 31.6 µM (inconclusive).

And the AC50 [2]?
The AC50 was 22.4 µM (inconclusive).

And the AC50 [3]?
The AC50 was 17.8 µM (inconclusive).

For `COc1ccc(CN2C(=O)CN(C3CCCCCC3)C(=O)C2c2ccc(OC)c(OC)c2)cc1` (configuration not stated), which AC50 [3] is on record?
Its AC50 is 35.5 µM (inconclusive).

For `Cc1ccc(-c2cn3c(n2)SCC3)cc1`, which AC50 [4] is on record?
Its AC50 is 0.513 µM (active).

With `COc1ccc(C2Nc3ccccc3C(=O)N2Cc2ccco2)cc1COc1ccc([N+](=O)[O-])cc1` (configuration not stated) as the compound, how does the AC50 [2] read?
Its AC50 is 3.98 µM (inconclusive).

With `Cc1cc(-c2ccc(Cl)cc2)oc(=O)c1NC(=O)c1ccccc1` as the compound, how does the AC50 [1] read?
The AC50 was 3.55 µM (inconclusive).

For `O=C1c2ccccc2C(=O)N1CCCCN(C(=O)c1cc([N+](=O)[O-])cc([N+](=O)[O-])c1)c1ccc(Cl)cc1`, which CC50 [5] is on record?
Its CC50 is > 50 µM (active).

With `CCCOC(=O)C(=O)NNc1ccccc1` as the compound, how does the AC50 [6] read?
The AC50 was 0.95 µM (active).

Which AC50 [3] does the source give for `CS(=O)(=O)Nc1cccc(-c2nc(NCCN3CCOCC3)c3ccccc3n2)c1` here?
The AC50 was 25.1 µM (inconclusive).

Which CC50 [5] does the source give for `CN=C(S)N1CCN(c2ccc(Cl)c(Cl)c2)CC1` here?
Its CC50 is 21.3 µM (active).

What does the source list for `CC(CO)(CO)/N=C\c1cc(I)cc(I)c1O`?
AC50 [3]: 1.58 µM (inconclusive); AC50 [7]: 6.31 µM (inconclusive)

Which AC50 [3] does the source give for `N#C/C(=C\c1ccc(N2CCCC2)c([N+](=O)[O-])c1)c1nc2ccccc2[nH]1` here?
The AC50 was 11.2 µM (inconclusive).

Which CC50 [5] does the source give for `CC(NC(=O)c1ccc(N2CCNCC2)c([N+](=O)[O-])c1)C12CC3CC(CC(C3)C1)C2` (configuration not stated) here?
The CC50 was 16 µM (active).

And the AC50 [6]?
The AC50 was 10.2 µM (active).

Which AC50 [4] does the source give for `Oc1ccccc1-c1nnc(S)n1Cc1ccco1` here?
Its AC50 is 4.75 µM (active).

For `CN1CCN(c2ncnc3ccc(-c4ccccc4Cl)cc23)CC1`, which AC50 [2] is on record?
The AC50 was 25.1 µM (inconclusive).

Which CC50 [5] does the source give for `Cc1nc2cc(C(F)(F)F)ccc2n1CCNc1nc(-c2cc(Cl)c(N)c(Cl)c2)cs1` here?
The CC50 was 19.7 µM (active).

With `CCCNC(=O)N1N=C(c2ccc(N)cc2)c2cc3c(cc2[C@H]1C)OCO3` as the compound, how does the AC50 [2] read?
Its AC50 is 25.1 µM (inconclusive).

With `C=CCc1ccc(OCCOCCOc2cccc3ccc(C)nc23)c(OC)c1` as the compound, how does the CC50 [5] read?
Its CC50 is 29.6 µM (active).

For `CC(C)C(NS(=O)(=O)c1cccc2nsnc12)C(=O)N1CCc2ccccc2C1` (configuration not stated), which AC50 [1] is on record?
The AC50 was 6.31 µM (inconclusive).

And the AC50 [7]?
The AC50 was 3.55 µM (inconclusive).

Which AC50 [1] does the source give for `COCCCN1C(=O)C(O)=C(C(=O)c2ccc(OC(C)C)c(C)c2)C1c1ccncc1` (configuration not stated) here?
Its AC50 is 11.2 µM (inconclusive).

What about the AC50 [7] of the same compound?
Its AC50 is 35.5 µM (inconclusive).

Which CC50 [5] does the source give for `CN(CC(=O)Nc1ccc(Cl)cc1)CC(=O)Nc1cccc(Br)c1` here?
The CC50 was 16.2 µM (active).

Which AC50 [4] does the source give for `COc1ccc(N2CCN(C(=O)CCNC(=O)c3ccc(C(C)(C)C)cc3)CC2)cc1` here?
The AC50 was 10.1 µM (active).

With `CC(C)OC(=O)c1cc2c(OC[C@@H](O)CNC(C)(C)C)cccc2[nH]1` as the compound, how does the AC50 [2] read?
The AC50 was 15.8 µM (inconclusive).

What about the AC50 [3] of the same compound?
Its AC50 is 31.6 µM (inconclusive).

For `N=C(N)c1ccc(/N=N\c2c(O)ccc3c2[nH]c2ccccc23)cc1`, which AC50 [2] is on record?
Its AC50 is 5.01 µM (inconclusive).

With `COc1cccc(Cn2c(=O)c(-c3cc(F)cc(F)c3)nc3cnc(N4CCNCC4)nc32)c1` as the compound, how does the AC50 [1] read?
Its AC50 is 39.8 µM (inconclusive).

And the AC50 [2]?
Its AC50 is 39.8 µM (inconclusive).
